Earlier results, collected in US6468944B1, “Method of preparing glyphosate herbicide formulations” (priority 1991, dated 2002).

## O=C(O)CNCP(=O)(O)O [Glyphosate, N-phosphonomethylglycine]
  solubility in water: relatively insoluble in water
